# Laboratory results published in US9254290B2, “Method for screening diabetes treating agent” (GWANGJU INSTITUTE OF SCIENCE AND TECHNOLOGY, priority 2010, dated 2016).
# Assays:
# 3T3-L1 adipocytes = assay: 6-NBDG uptake screening in 3T3-L1 adipocytes, 96-well, fluorescent microplate reader; format: cell-based, murine; settings: 100 nM insulin or 250 μM zinc sulfate; 6-NBDG vs 2-NBDG
# Method: 3T3-L1 murine fibroblasts were maintained in proliferation media, consisting of DMEM supplemented with 10% FBS, 50 units/mL penicillin and 50 μg/mL streptomycin. 3T3-L1 fibroblasts were induced to differentiate into adipocytes as follows: 48 h postconfluent cells (designated day 0) were cultured in DMEM supplemented 10% FBS, 0.5 mM 3-isobutyl-1-methyl-xanthine, 2 μg/ml dexamethasone, 1 μg/ml insulin, 50 units/mL penicillin and 50 μg/mL streptomycin for 2 days. Every 2 days thereafter, the cells were incubated with fresh DMEM supplemented with 10% FBS and 1 μg/ml insulin. 3T3-L1 adipocytes were used for experiments 8 days after the induction of differentiation.
# Three cell lines were chosen to test if NBDG can be used to detect insulin-stimulated glucose uptake in a 96 well plate culture format, which is more suitable for cell-based screening to identify novel insulin mimetic compounds. The cell lines chosen were Huh7 hepatocytes, C2C12 myoblasts and 3T3-L1 pre-adipocytes, which represent the major body tissue types that are sensitive to the action of insulin (liver, muscle and fat). 10^4 cells/well were seeded in a black, 96 well tissue culture plate (BD Falcon, NJ, USA). C2C12 myoblasts and 3T3-L1 adipocytes were induced to undergo differentiation into myotubes and adipocytes, respectively, to compare the NDBG signal in proliferating and differentiated cells. NBDG uptake was measured following treatment with 10 nM or 100 nM insulin, and 1 μM or 10 μM rosiglitazone (an insulin-sensitizing agent), using a fluorescent microplate reader (SpectraMAX GeminiXS and SoftMax Pro V5 software, Molecular Devices, CA, USA). Cells were cultured in serum-free low glucose culture media for 3 h before the addition of insulin.
# To test the NBDG-based screening system, a combinatorial chemical library of 576 triazine-based small molecules was screened at a concentration of 5 μM. The combinatorial library was provided by Professor Young-Tae Chang, Department of Chemistry, National University of Singapore.
# To test if this screening protocol could detect new insulin mimetic compounds, a combinatorial chemical library of 576 triazine-based small molecules was screened.
# GLUT 1 = target: T1, GLUT 1 (Homo sapiens, UniProt P11166); settings: cited from earlier work
# T1 sequence (P11166 1-492): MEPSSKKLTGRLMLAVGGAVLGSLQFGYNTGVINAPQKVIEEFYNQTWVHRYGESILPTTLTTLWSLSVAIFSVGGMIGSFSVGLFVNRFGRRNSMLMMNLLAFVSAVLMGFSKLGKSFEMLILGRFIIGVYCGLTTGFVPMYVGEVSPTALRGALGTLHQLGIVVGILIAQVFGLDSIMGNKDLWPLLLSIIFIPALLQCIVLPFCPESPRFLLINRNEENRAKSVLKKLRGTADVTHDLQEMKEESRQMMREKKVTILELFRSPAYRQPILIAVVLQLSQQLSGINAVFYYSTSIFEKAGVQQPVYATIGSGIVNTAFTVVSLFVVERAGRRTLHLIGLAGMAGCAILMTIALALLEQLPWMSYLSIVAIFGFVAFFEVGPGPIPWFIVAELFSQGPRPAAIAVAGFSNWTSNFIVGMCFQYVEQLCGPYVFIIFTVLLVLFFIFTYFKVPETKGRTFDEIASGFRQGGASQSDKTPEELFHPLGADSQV
compound,measurement,setting,value
"O=[N+]([O-])c1ccc(NCC2OC(O)C(O)C(O)[C@@H]2O)c2nonc12 (some centres unmarked) [6-NBDG, 6-(N-(7-nitrobenz-2-oxa-1,3-diazol-4-yl)amino)-6-deoxyglucose, reference compound]",fluorescent signal of probe after insulin-stimulated uptake,3T3-L1 adipocytes,produced a greater fluorescent signal than 2-NBDG
same,affinity for GLUT 1 relative to glucose,GLUT 1,300 times
